Experimental data from patent US20190380964A1, “METHODS AND COMPOSITIONS FOR MAKING AND USING NANOTHERAPEUTIC DRUG DELIVERY VEHICLES” (GEORGE MASON UNIVERSITY, priority 2018, published 2019).

Columns and labels:
MDA-MB-231 cells [1] = experiment: WST-1 proliferation / viability of MDA-MB-231 cells exposed to targeted DXR liposomes; format: cell-based; details: 8 or 24 hours exposure, evaluated over 3 days
Procedure: In an alternate embodiment, MDA-MB-231 cells were grown in DMEM containing 10% FBS and 1× Penicillin-Streptomycin solution. The cells were cultured at 70% confluence and plated in a 96 well plate at a density of 5×10^4 cells/well. The cells were incubated undisturbed for two days prior to any experimentation. Liposomal suspensions were UV sterilized prior to introduction to cell cultures. On the second day, the liposomal carriers containing DXR were introduced to the cultures at the EC-50 of DXR (0.01 μM21). Proliferating cells were quantified and normalized by the control using WST-1 proliferation assay.
Liposomes were incubated with DXR (17.2 mM) and DSPE-PEG-MAL (0.1 mol %) for 1 hour. The suspension was then purified using spin columns and incubated overnight with CD44 antibodies as described in the methods. Targeted liposomes were introduced to cultures of MDA-MB-231 cells and allowed to interact for 8 hours or 24 hours prior to being washed. […] Viability was analyzed over 72 hours using WST-1 as an indicator of proliferation and normalized to a media only control (e.g., as is illustrated in FIG. 8D).

MDA-MB-231 cells [2] = details: concentration at which DXR liposomal carriers were introduced; read-out: EC-50 of DXR; cited from earlier work

With `COc1cccc2c1C(=O)c1c(O)c3c(c(O)c1C2=O)C[C@@](O)(C(=O)CO)C[C@@H]3O[C@H]1C[C@H](N)[C@H](O)[C@H](C)O1` [DXR, doxorubicin] as the compound, how does the “cancer cell viability (result in words, FIG. 8D)” value (MDA-MB-231 cells [1]) read?
The value was “demonstrated efficacy in reducing cancer cell viability”.

What about the EC50 (MDA-MB-231 cells [2]) of the same compound?
The EC50 was 0.01 µM.
